Source: PubChem BioAssay AID1918993 (Molecular Pharmacology Branch, DTP, NCI, 2023)
Several values for one entry are separate records, joined by “and”; a condition that tells them apart may be missing. Identical values can stand only once. Each block holds one molecule with its values, some of them ahead of it.

System: 233499-124-R-J3-PDC complex spheroid growth
Test: Anticancer human tumor 233499-124-R-J3-PDC patient-derived colon adenocarcinoma cell line growth inhibition [AhR]
Details: for viability, T/C: stronger effect = lower value
Description: Multicellular complex tumor spheroid response to aryl hydrocarbon receptor antagonists in combination with a variety of drugs and investigational agents in selected tumor cell lines
The current study was undertaken to assess response to aryl hydrocarbon receptor antagonists in combination with standard-of-care drugs and investigational agents in solid tumor complex spheroid models. Complex spheroids include a stromal component modeled by human endothelial cells (HUVEC) and fibroblasts modeled by human mesenchymal stem cells (MSCs). The concentration ranges selected for each drug and investigational agent were based upon clinically achievable concentrations if the clinical Cmax of the agent was known.
Compounds. The drugs and investigational agents: BAY 2416964 (NSC825713), GNF351 (NSC835774), CH-223191 (NSC835775), CPI-455 (NSC825282), aza-TdCyd (NSC777586), decitabine (NSC127716), belinostat (NSC758774), entinostat (NSC756642), pevonedistat (NSC761192), tazemetostat (NSC777109), talazoparib (NSC765396), olaparib (NSC753686), selinexor (NSC780203), nedisertib (M3814, NSC802822), bortezomib (NSC756655), venetoclax (NSC766270), doxorubicin (NSC123127), elimusertib (BAY189344, NSC800525), ceralasertib (AZD6738, NSC777638), TAK-243 (NSC785004), alisertib (NSC759677), etoposide (NSC141540), topotecan (NSC609699), eribulin (NSC707389), gemcitabine (NSC613327), carboplatin (NSC241240), cisplatin (NSC119875), and SN-38 (NSC673596) were obtained from the National Cancer Institute (NCI) Developmental Therapeutics Program Chemical Repository (32). The FDA-approved anticancer drug set is available from the Developmental Therapeutics Program at https://dtp.cancer.gov/organization/dscb/obtaining/available plates.htm. […] The stock solutions were prepared in dimethyl sulfoxide (DMSO, Sigma-Aldrich, St. Louis, MO, cat. D2650), except for the platinum compounds which were prepared in saline (Quality Biological, Gaithersburg, MD, cat. 114-055-101), at 800-fold the tested concentration and stored at -70 degrees C prior to their use. All drugs and investigational agents were tested over a range starting from a high concentration at or near the clinical Cmax and decreasing in half-log increments. If the clinical Cmax for an agent had not been determined, the highest concentration tested was 10 microM (Table 1).
Cell Culture. All cells were maintained in an incubator at 37 degrees C and 5% CO2 with 95% humidity. The PDC lines were cultured according to standard operating procedures established by the NCI PDMR (https://pdmr.cancer.gov). Briefly, all PDCs were thawed and cultured in Matrigel-coated flasks prepared with a working solution of 1X Ham's F-12 nutrient mix, without supplementation (Invitrogen, Waltham, MA, cat. 11765054), 100 U/mL penicillin-streptomycin (Invitrogen, cat. 15140122), and 2.5% Matrigel (Corning Inc., Corning, NY, cat. 354248) for the first three passages. All PDCs were cultured in complete DMEM/F-12 media containing advanced DMEM/F-12 (Invitrogen, cat. 12634028), 4.9% defined fetal bovine serum, heat inactivated (HyClone Laboratories Inc., Logan, UT, cat. SH30070.03HI), 389 ng/mL hydrocortisone (Sigma-Aldrich, cat. H4001), 9.7 ng/mL human EGF recombinant protein (Invitrogen, cat. PHG0313), 23.4 microg/mL adenine (Sigma-Aldrich, cat. A2786), 97.3 U/mL penicillin-streptomycin (Invitrogen, cat. 15140122), 1.9 mM L-glutamine (Invitrogen, cat. 25030081), and 9.7 microM Y-27632 dihydrochloride (Tocris Bioscience, Bristol, United Kingdom, cat. 1254). The PDCs were cultured in complete DMEM/F12 media without 10 microM Y-27632 dihydrochloride for at least two passages prior to the screen. The established cell lines NCI-H1341 and […] were cultured in DMEM/F-12, HEPES (Invitrogen, cat. 11330032), 5% defined fetal bovine serum (HyClone Laboratories Inc., cat. SH30070.03), ITS premix universal culture supplement [insulin (5 microg/mL), transferrin (5 microg/mL), and selenious acid (5 ng/mL)] […]

[1] = curve of first compound, second compound 0.1 µM
[2] = curve of first compound, second compound 0.316 µM
[3] = curve of first compound, second compound 1 µM
[4] = curve of first compound, second compound 3.16 µM
[5] = curve of first compound, second compound 10 µM
[6] = second compound 0.1 µM, first compound 0.0316 µM
[7] = second compound 0.1 µM, first compound 0.1 µM
[8] = second compound 0.316 µM, first compound 0.0316 µM
[9] = second compound 0.316 µM, first compound 0.1 µM
[10] = second compound 1 µM, first compound 0.0316 µM
[11] = second compound 1 µM, first compound 0.1 µM
[12] = second compound 3.16 µM, first compound 0.0316 µM
[13] = second compound 3.16 µM, first compound 0.1 µM
[14] = second compound 10 µM, first compound 0.0316 µM
[15] = second compound 10 µM, first compound 0.1 µM
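Note: spheroids exposed to agents for seven days before reading.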

IC50 [1]: > 0.1 µM
IC50 [2]: > 0.1 µM
IC50 [3]: > 0.1 µM
IC50 [4]: > 0.1 µM
IC50 [5]: > 0.1 µM
Structure (SMILES): Cn1ncnc1C1c2n[nH]c(=O)c3cc(F)cc(c23)NC1c1ccc(F)cc1 (configuration not stated) + CC(CO)NC(=O)c1cc(-c2ccc(Cl)cc2)nn(-c2cnn(C)c2)c1=O
viability, T/C (second compound 0.1 µM, first compound 0.000316 µM): 97.1%
viability, T/C (second compound 0.1 µM, first compound 0.001 µM): 102%
viability, T/C (second compound 0.1 µM, first compound 0.00316 µM): 101%
viability, T/C (second compound 0.1 µM, first compound 0.01 µM): 106%
viability, T/C [6]: 86.7%
viability, T/C [7]: 104%
viability, T/C (second compound 0.316 µM, first compound 0.000316 µM): 90.6%
viability, T/C (second compound 0.316 µM, first compound 0.001 µM): 104%
viability, T/C (second compound 0.316 µM, first compound 0.00316 µM): 88.6%
viability, T/C (second compound 0.316 µM, first compound 0.01 µM): 92.6%
viability, T/C [8]: 108%
viability, T/C [9]: 87.5%
viability, T/C (second compound 1 µM, first compound 0.000316 µM): 93.6%
viability, T/C (second compound 1 µM, first compound 0.001 µM): 103%
viability, T/C (second compound 1 µM, first compound 0.00316 µM): 92.2%
viability, T/C (second compound 1 µM, first compound 0.01 µM): 109%
viability, T/C [10]: 77.6%
viability, T/C [11]: 101%
viability, T/C (second compound 3.16 µM, first compound 0.000316 µM): 97%
viability, T/C (second compound 3.16 µM, first compound 0.001 µM): 103%
viability, T/C (second compound 3.16 µM, first compound 0.00316 µM): 87.9%
viability, T/C (second compound 3.16 µM, first compound 0.01 µM): 98.9%
viability, T/C [12]: 91.2%
viability, T/C [13]: 87.6%
viability, T/C (second compound 10 µM, first compound 0.000316 µM): 83.2%
viability, T/C (second compound 10 µM, first compound 0.001 µM): 80.8%
viability, T/C (second compound 10 µM, first compound 0.00316 µM): 90.2%
viability, T/C (second compound 10 µM, first compound 0.01 µM): 83%
viability, T/C [14]: 87%
viability, T/C [15]: 78.7%

IC50 (curve of compound): 6.32 µM and 6.14 µM and 5.43 µM
Structure (SMILES): O=C(C=Cc1cccc(S(=O)(=O)Nc2ccccc2)c1)NO
viability, T/C (compound 0.0316 µM): 98.2% and 96.2% and 89.6%
viability, T/C (compound 0.1 µM): 112% and 105% and 102%
viability, T/C (compound 0.316 µM): 97.2% and 109% and 111%
viability, T/C (compound 1 µM): 115% (2×) and 109%
viability, T/C (compound 3.16 µM): 95.7% and 101% and 82.7%
viability, T/C (compound 10 µM): 19.4% and 12.2% and 13.2%

IC50 [1]: > 10 µM
IC50 [2]: > 10 µM
IC50 [3]: > 10 µM
IC50 [4]: > 10 µM
IC50 [5]: > 10 µM
Structure (SMILES): COc1cc(Nc2ncc3c(n2)-c2ccc(Cl)cc2C(c2c(F)cccc2OC)=NC3)ccc1C(=O)O + Cc1ccccc1N=Nc1ccc(NC(=O)c2ccnn2C)c(C)c1
viability, T/C [6]: 92.5%
viability, T/C [7]: 81.9%
viability, T/C (second compound 0.1 µM, first compound 0.316 µM): 96.3%
viability, T/C (second compound 0.1 µM, first compound 1 µM): 98.5%
viability, T/C (second compound 0.1 µM, first compound 3.16 µM): 86.5%
viability, T/C (second compound 0.1 µM, first compound 10 µM): 96.7%
viability, T/C [8]: 83.1%
viability, T/C [9]: 77.5%
viability, T/C (second compound 0.316 µM, first compound 0.316 µM): 96.4%
viability, T/C (second compound 0.316 µM, first compound 1 µM): 93.1%
viability, T/C (second compound 0.316 µM, first compound 3.16 µM): 96.6%
viability, T/C (second compound 0.316 µM, first compound 10 µM): 84.2%
viability, T/C [10]: 89%
viability, T/C [11]: 93.2%
viability, T/C (second compound 1 µM, first compound 0.316 µM): 90.4%
viability, T/C (second compound 1 µM, first compound 1 µM): 87.2%
viability, T/C (second compound 1 µM, first compound 3.16 µM): 97.5%
viability, T/C (second compound 1 µM, first compound 10 µM): 92.1%
viability, T/C [12]: 91.5%
viability, T/C [13]: 80.4%
viability, T/C (second compound 3.16 µM, first compound 0.316 µM): 102%
viability, T/C (second compound 3.16 µM, first compound 1 µM): 105%
viability, T/C (second compound 3.16 µM, first compound 3.16 µM): 85.2%
viability, T/C (second compound 3.16 µM, first compound 10 µM): 100%
viability, T/C [14]: 109%
viability, T/C [15]: 101%
viability, T/C (second compound 10 µM, first compound 0.316 µM): 102%
viability, T/C (second compound 10 µM, first compound 1 µM): 101%
viability, T/C (second compound 10 µM, first compound 3.16 µM): 116%
viability, T/C (second compound 10 µM, first compound 10 µM): 115%
